The experiment deals with Mitogen-activated protein kinase kinase kinase 9 (Homo sapiens, UniProt P80192). The experiment is described as follows: Evaluation of Inhibitory Activity of Enzyme Units.

SMILES strings stand for the structures.

Chain of Mitogen-activated protein kinase kinase kinase 9 (P80192 whole entry): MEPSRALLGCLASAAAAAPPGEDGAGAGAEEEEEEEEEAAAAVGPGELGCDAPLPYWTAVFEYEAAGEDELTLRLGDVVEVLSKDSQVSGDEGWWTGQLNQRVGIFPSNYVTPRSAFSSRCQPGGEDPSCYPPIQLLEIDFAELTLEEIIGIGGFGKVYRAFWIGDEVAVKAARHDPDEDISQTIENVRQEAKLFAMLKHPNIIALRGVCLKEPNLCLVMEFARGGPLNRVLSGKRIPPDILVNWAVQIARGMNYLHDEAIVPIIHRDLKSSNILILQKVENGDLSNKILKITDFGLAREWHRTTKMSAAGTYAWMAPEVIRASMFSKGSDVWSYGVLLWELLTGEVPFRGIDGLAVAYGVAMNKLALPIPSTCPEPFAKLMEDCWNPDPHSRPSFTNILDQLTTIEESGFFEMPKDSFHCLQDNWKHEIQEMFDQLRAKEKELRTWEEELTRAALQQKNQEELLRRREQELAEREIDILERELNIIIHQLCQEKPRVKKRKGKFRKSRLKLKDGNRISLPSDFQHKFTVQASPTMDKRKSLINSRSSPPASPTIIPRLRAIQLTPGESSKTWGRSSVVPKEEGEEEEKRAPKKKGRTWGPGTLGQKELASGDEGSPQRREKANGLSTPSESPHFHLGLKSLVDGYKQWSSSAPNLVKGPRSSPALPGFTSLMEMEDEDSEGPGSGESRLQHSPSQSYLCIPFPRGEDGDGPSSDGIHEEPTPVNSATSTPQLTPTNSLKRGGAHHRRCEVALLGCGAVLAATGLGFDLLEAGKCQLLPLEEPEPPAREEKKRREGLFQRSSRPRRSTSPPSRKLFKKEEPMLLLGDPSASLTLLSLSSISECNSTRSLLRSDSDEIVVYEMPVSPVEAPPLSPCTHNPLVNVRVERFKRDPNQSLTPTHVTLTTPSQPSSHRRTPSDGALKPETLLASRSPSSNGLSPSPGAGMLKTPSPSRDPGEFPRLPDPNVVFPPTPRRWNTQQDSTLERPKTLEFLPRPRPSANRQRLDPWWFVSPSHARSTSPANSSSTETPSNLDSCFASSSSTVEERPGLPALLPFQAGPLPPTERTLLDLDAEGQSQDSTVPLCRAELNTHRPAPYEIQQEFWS

In general, IC50 refers to the concentration that gives 50% inhibition. `CCS(=O)(=O)N1CC[C@H](Nc2c(Br)cnc3nc(-c4cc(C)n(-c5ccc(OCCN6CCOCC6)cc5)c4C)[nH]c23)C1` [US12545673, Example 4] registered an IC50 of 56 nM.

For the origin of these results see BindingDB's records for patent US12545673 (TSD Life Sciences, 2026).
